The values below come from patent US20050053921A1, “Systems for screening anti-hepatitis drugs” (priority 2003, published 2005).

For series [1], the target named is T1, NS3/4A protease in Ava5-EG(Δ4AB)SEAP cells (Hepatitis C virus genotype 1b, UniProt Q9WMX2).
T1 construct: Ava5 cells expressed endogenous NS3/4A protease; endogenous in cells; host or cells: Ava5 cells (Huh-7 carrying an HCV subgenomic replicon)
The series is described as follows: SEAP activity in medium of stable Ava5-EG(Δ4AB)SEAP cells. The class given is cell-based, HCV. The note with it: for extracellular SEAP activity: TPCK 0-40 μM or IFN-γ 0-100 I.U./ml. As to the method: (§1) After the cotransfection, culture media and cell lysates were harvested at 12-hour intervals. The SEAP activity in the culture medium and the β-galactosidase activity in the cell lysates were measured using Phospha-Light and Galacto-Star assay kits (Tropix, Foster, Calif., USA), respectively. The respective chemiluminescent intensities were detected by a Top Counter Microplate Scintillation and Luminescence Counter (Packard, Meriden, Conn., USA). The intensities reflected the relative activities of SEAP and […]. In these experiments, the β-gal activity was used to normalize transfection efficiency according standard techniques. Meanwhile, fluorescence emitted from the green fluorescent protein was examined using a fluorescence microscope (Nikon DIAPHOT 300).
Huh-7 or Ava5 cells were seeded in 24-well plates at a density of 2×10^4 cells per well. After incubation at 37° C. overnight, the cells were transduced with serial dilutions of lentiviral particles in the presence of 6 μg/ml polybrene (Sigma, St. Louis, Mo., USA) in the manner described above. After incubation for 24 hours, the virus-containing medium was replaced by a fresh medium and the cells were incubated for another 2 days. The cells were then selected in the presence of 10 μg/ml of blasticidin for 3-4 weeks.
One blasticidin-resistant Huh-7 clone and two blasticidin-resistant Ava5 clones were obtained. Cell lines thus produced were designated as Huh-7-EG(Δ4AB)SEAP and […], respectively. The cells were then examined for expression of EG(Δ4AB)SEAP and the amount NS3 protein by Western blot analysis using anti-EGFP antibody and anti-NS3 antibody, respectively. […] They also expressed free EGFP, resulting from the cleavage of the EG(Δ4AB)SEAP by NS3/4A protease. In naive Huh-7 and Ava5 cells, neither free EGFP nor NS3 could be detected.
(§2) Ava5-EG(Δ4AB)SEAP clone 1 was further treated by IFN-α (0-50 units/ml) in the manner described above. They, the cells were examined for cellular NS3/4A protein and HCV RNA levels by western blot and dot blot, respectively. The dot blot was conducted as follows: RNA was extracted using TRIZOL reagent (Invitrogen). Three micrograms of RNA was dissolved in 100 μl of TE buffer (10 mM Tris-HCl, 1 mM EDTA, pH 7.5) and 60 μl of 20×SSC, and 40 μl of 37% formaldehyde stock solution were added. The samples were incubated at 60° C. for 15 min and then applied to pre-wetted nylon membrane using an S&S Minifold® I dot-blot device (Schleicher & Schuell GmbH, Relliehausen, Germany). Each well was washed twice with 6×SSC. Bound RNA was immobilized onto the membrane by UV-cross linking (Stratagene, La Jolla, Calif., USA) under the autocross-link condition, then hybridization and counting were conducted as described (Lee et al., 2003. Anal. Biochem.316, 162-170a). The membrane was probed with NS5B gene fragment of HCV labeled with […] by rediprime II random primer labeling system (Amersham Biosciences, Buckinghamshire, England). The blots were visualized by autoradiography and intensities of the blots were measured by densitometry (UVP GDS-8000 BioImaging System, Upland, Calif., USA).
The just-described cell line was used to examined several other known anti-HCV compounds, such as an NS3/4A inhibitor, N-tosyl-1-phenylalanine chloromethyl ketone (TPCK) (Berdichevsky et al., 2003, J. Virol. Methods 107, 245-255.), and IFN-γ (Frese et al., 2002, Hepatology 35, 694-703.). […]

For a further series, the target named is NS3/4A protease (Hepatitis C virus genotype 1a, UniProt P27958). The series is described as follows: cell-based. More on the design: species or system HCV type 1a.
For series [2], the system named is 293P-EG(Δ4AB)SEAP-NS3/4A cells. In words: MTS cellular toxicity assay. The note with it: concentration up to 10 μM. The class given is cell-based. (In general: Formazan colour is commonly taken as a measure of viable cells.)
The test system of series [3] is HCV subgenomic replicons (HCV RNA). In words: HCV RNA level by Northern hybridization in Ava5 cells expressing EG(Δ4AB)SEAP. It counts as cell-based. The note with it: 100 IU/ml.
For the next series, the system named is HCV RNA. In words: HCV RNA level by dot blot in Ava5-EG(Δ4AB)SEAP clone 1. It counts as cell-based. The note with it: 0-50 units/ml. As to the method:
as §2

The test system of another series is NS3/4A protein. In words: Cellular NS3/4A protein level by western blot in Ava5-EG(Δ4AB)SEAP clone 1. The class given is cell-based, HCV. The settings on record: 0-50 units/ml. How it is done:
as §2

In the next series the test system is HCV NS3 protease. The note with it: 100 IU/ml, Ava5 cells, especially after 3 days of treatment.
In series [4] the test system is endogenous NS3/4A protease in Ava5 cells. The series is described as follows: SEAP activity in medium of Ava5 cells transiently transfected with EG(Δ4AB)SEAP. It counts as cell-based, HCV. The note with it: 100 IU/ml. How it is done: as §1
Ava5 cells expressed endogenous NS3/4A protease. […] Western blotting was also conducted in the same manner.

Where [5] appears, read: Ava5-EG(Δ4AB)SEAP cells, 72 hours.

T1 sequence (Q9WMX2 1027-1657, stated change not applied): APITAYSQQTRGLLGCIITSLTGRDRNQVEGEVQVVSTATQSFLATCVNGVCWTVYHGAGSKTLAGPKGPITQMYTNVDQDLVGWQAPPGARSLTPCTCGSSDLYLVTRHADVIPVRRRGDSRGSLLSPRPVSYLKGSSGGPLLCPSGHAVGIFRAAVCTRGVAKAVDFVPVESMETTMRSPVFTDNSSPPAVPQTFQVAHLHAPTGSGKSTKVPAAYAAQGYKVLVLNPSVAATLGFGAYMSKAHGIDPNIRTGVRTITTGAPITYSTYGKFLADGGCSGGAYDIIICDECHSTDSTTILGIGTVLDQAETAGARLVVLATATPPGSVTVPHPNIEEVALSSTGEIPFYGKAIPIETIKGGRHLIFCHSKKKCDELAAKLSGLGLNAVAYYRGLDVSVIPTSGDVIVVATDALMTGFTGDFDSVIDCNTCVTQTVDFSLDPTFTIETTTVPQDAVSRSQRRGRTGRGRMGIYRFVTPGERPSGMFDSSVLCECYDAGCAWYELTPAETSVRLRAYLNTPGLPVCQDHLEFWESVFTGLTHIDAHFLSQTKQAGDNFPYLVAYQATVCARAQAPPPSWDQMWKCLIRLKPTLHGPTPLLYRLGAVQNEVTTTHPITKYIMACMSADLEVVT
T1 sequence (Q9WMX2 1658-1711, stated change not applied): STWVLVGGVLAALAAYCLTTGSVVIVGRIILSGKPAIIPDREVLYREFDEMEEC
Chain of endogenous NS3/4A protease in Ava5 cells (Q9WMX2 1027-1657): as the sequence (Q9WMX2 1027-1657, stated change not applied) above
Chain of NS3/4A protein (Q9WMX2 1027-1657): as the sequence (Q9WMX2 1027-1657, stated change not applied) above
Chain of HCV NS3 protease (Q9WMX2 1027-1657): as the sequence (Q9WMX2 1027-1657, stated change not applied) above
Chain of NS3/4A protease (P27958 1027-1657): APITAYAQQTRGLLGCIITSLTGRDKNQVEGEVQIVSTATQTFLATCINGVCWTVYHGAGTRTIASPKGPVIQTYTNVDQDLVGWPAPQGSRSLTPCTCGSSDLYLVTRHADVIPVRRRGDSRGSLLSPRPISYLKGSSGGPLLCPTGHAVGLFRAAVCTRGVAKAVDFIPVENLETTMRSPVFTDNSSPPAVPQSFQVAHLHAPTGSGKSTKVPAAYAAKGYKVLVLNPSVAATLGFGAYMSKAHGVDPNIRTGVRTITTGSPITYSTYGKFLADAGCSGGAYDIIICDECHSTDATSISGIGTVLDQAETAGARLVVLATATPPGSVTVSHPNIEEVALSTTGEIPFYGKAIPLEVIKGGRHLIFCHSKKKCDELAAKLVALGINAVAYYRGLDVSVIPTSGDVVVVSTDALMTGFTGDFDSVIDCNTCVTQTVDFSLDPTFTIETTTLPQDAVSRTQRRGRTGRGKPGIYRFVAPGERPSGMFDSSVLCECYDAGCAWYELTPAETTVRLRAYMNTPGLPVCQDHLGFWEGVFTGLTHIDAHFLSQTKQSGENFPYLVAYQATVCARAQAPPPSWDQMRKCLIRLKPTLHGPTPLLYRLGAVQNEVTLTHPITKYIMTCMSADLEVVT
Chain of NS3/4A protease (P27958 1658-1711): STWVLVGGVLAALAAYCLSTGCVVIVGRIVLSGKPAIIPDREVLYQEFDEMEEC
Procedure for HCV NS3 protease: They were maintained in DMEM/10% FBS/1 mg/ml G418 (Geneticin) and DMEM/10% FBS, respectively. Ava5 cells expressed endogenous NS3/4A protease. The above-described dual-reporter construct was transient transfected into the cells in the same manner descried above except that FuGENE 6 (Roche), instead of LipofectamineTM was used. Western blotting was also conducted in the same manner.
Ava5 cells expressing EG(Δ4AB)SEAP were then tested for the ability to screen for HCV protease inhibitors. More specifically, the cells were treated with IFN-α (Schering-Plough Corp., Kenilworth, N.J., USA) and examined for the SEAP activity in their medium in the manner described above.
The protein level of NS3 protease was also determined by standard techniques.

As to `Cc1ccc(S(=O)(=O)N[C@@H](Cc2ccccc2)C(=O)CCl)cc1` [TPCK, N-tosyl-1-phenylalanine chloromethyl ketone, reference compound], the “extracellular SEAP activity” value in series [1] (setting [5]) is given as “dose-dependent decrease”. In addition, the “suppression of HCV replication” value in series [1] (at 0.2 μM, Ava5-EG(Δ4AB)SEAP cells, 72 hours) is recorded as “more than 50%”.
For `COc1ccc2c(O[C@@H]3C[C@H]4C(=O)N[C@]5(C(=O)O)C[C@H]5/C=C\CCCCC[C@H](NC(=O)OC5CCCC5)C(=O)N4C3)cc(-c3csc(NC(C)C)n3)nc2c1` [BILN-2061], the half-maximal effective concentration (EC50) on NS3/4A protease was roughly 2 nM. For the same molecule, in series [2], the “cellular toxicity as measured by MTS assay” value is on record as “did not cause detectable cellular toxicity”.
In the case of IFN-α, in series [3], the “RNA levels of gadph (housekeeping gene)” value is listed as “remained the same”. Moreover, in series [3] (especially after 3 days of treatment), the “HCV RNA levels” value is reported as “declined”. The “SEAP activity in the culture medium” value in series [1] (0-50 units/ml, Ava5-EG(Δ4AB)SEAP clone 1) is reported as “decreased”; in series [4], “decreased”. For the same molecule, the “HCV RNA level (dot blot)” value with HCV RNA is “decreased”. In addition, the “cellular NS3/4A protein level (western blot)” value in the series with NS3/4A protein is “decreased”. Also, in the series on HCV NS3 protease, the “HCV NS3 protease levels” value is “declined”.

B1: IFN-γ: IFN-γ, known anti-HCV compound (Frese et al., 2002) (protein, UniProt P01579 24-161, looked up)
Interferon gamma: QDPYVKEAENLKKYFNAGHSDVADNGTLFLGILKNWKEESDRKIMQSQIVSFYFKLFKNFKDDQSIQKSVETIKEDMNVKFFNSNKKKRDDFEKLTNYSVTDLNVQRKAIHELIQVMAELSPAAKTGKRKRSQMLFRG
Regarding B1, the “extracellular SEAP activity” value in series [1] (setting [5]) was “repressed”. Besides, in series [1] (extracellular SEAP activity, Ava5-EG(Δ4AB)SEAP cells, 72 hours), the “EC50 (effective concentration for 50% inhibition)” value is “below 10 IU/ml”.

In general, EC50 refers to the concentration needed to bring the measured effect to its halfway point.
